Measured values taken from US9451909B2, “System and method for detecting amyloid proteins” (Cognoptix, Inc., priority 2010, dated 2016).

Legend:
[1] = target: T1, aggregated Aβ(1-42) peptide (Homo sapiens, UniProt P05067); assay: In vitro fluorescence lifetime measurements of Compound #11 with aggregated Aβ peptide (SAPPHIRE II device); assay type: binding
T1 construct: Aggregated Aβ peptide was prepared by dissolving Aβ(1-42) in PBS pH 7.4
Method: (§1) In accordance with an embodiment of the invention, in vitro studies on aggregated Aβ peptides bound to Compound #11 were performed. Fluorescence lifetime measurements of Compound #11 with aggregated Aβ peptide were performed using a device in accordance with an embodiment of the invention. FIG. 8A is a fluorescence lifetime image showing Compound #11 and Compound #11 bound to aggregated Aβ peptide, with their corresponding fluorescence lifetime histograms shown in FIG. 8B, in accordance with an embodiment of the invention. By fitting the lifetime histograms, the decay rates are determined. […] An experimental description follows.
(§2) The purpose of this in vitro study was to identify the optical signature of the Compound #11 amyloid-binding compound, and to characterize its fluorescence properties when bound to aggregated Aβ peptide. […]
(§3) The Neuroptix SAPPHIRE II device (Neuroptix Corporation, Acton, Mass., U.S.A.) is a purpose built device for clinical studies in humans, which was adapted for in vitro measurements for this experiment. It employs a confocal scanning mechanism combined with fluorescence lifetime spectroscopy that allows differentiation of fluorophores. The device allows 1) scanning of the optical beam to specific locations in the anterior segments of the eye, such as the supranucleus and 2) identification of fluorescent fluorophores based on fluorescence lifetime measurements.
(§4) Aggregated Aβ peptide was prepared by dissolving Aβ(1-42) in PBS pH 7.4 to a final concentration of 100 μM. […] The solution was transferred to 5 mL vial and the fluorescence measurements were performed at 25° C.
(§5) The sample consisting of Compound #11 was placed in front of the Neuroptix SAPPHIRE II Device. Once the location of the scan in the sample was determined, a raster scan was performed to obtain fluorescence lifetime measurements. […] The shading that makes up most of the image background represents a lifetime decay of 1.4 nsec, which corresponds to that of the fluorescence amyloid-binding compound. […]

[2] = system: aggregated Aβ(1-42) peptide; assay: as above; assay type: binding; conditions: unbound; 4 μM Compound #11, PBS, 25° C.
Method: as §1, §2, §3, §4, §5

[3] = Ocular pharmacokinetics study, topical ointment, fluorescence lifetime and intensity measurements in the lens; assay type: in vivo, Dutch-belted rabbits
Method: Ocular pharmacokinetic investigation of dose response via topical administration of fluorescence amyloid-binding compound was performed in Dutch-belted rabbits. The rabbits were tested each day over a 4 day period using Compound #11 amyloid-binding compound in an ointment. Two animals were dosed in the right eye with Compound #11 (0.5%) in ointment form. One animal was untreated and used as control animal. The animals were dosed at specific time points for four days and tested with SAPPHIRE II system for fluorescence intensity and lifetime measurements at the beginning and end of each day.
All animals were dosed with Compound #11 via topical ocular application and tested in the right eye. Animals were anesthetized and manually held on a platform in front of the Neuroptix SAPPHIRE II device. Gross positioning was done by the animal handler, and fine tuning of the measurement location was done by the Neuroptix SAPPHIRE II operator. Once aligned, the SAPPHIRE II operator initiated the measurement sequence. Baseline measurements were made on the animals before dosing, and then at the beginning and end of each day (Table 1).
Fluorescence lifetime and intensity measurements were performed in the eye at the beginning and at the end of each day. The measurements entailed scanning the rabbit eye axially (z-scan) to obtain inter-ocular information and a planar scan (xy-scan) to perform lifetime decay measurements in a certain region of the eye, which is the lens nucleus in this case.
Once the location of interest was identified, Time Correlation Single Photon Counting (TCSPS) was initiated while performing the xy-scan. The fluorescence lifetime images were then obtained where the decay lifetime histogram was obtained for each pixel location. The calculated decay times were color coded in the fluorescence lifetime image. Each measurement was performed three times. The frequency count of photons of specific decay rates were calculated from the decay rates frequency that of the Compound #11 signature obtained in the xy-scan and averaged over the three measurements. […] The device was specifically designed for human use but the platform was slightly modified for holding the rabbits.
Group 1: Animals were anesthetized with subcutaneous injection of Dexdomitor (0.5 mg/kg), Ketamine (5 mg/kg). A ribbon of ointment approximately ½ inch long was then applied to the lower right eyelid of each animal in the test group three times a day for four days.

[4] = Fluorescence spectra and fluorescence lifetime histogram of Compound #11; assay type: physicochemical
Text: In an embodiment according to the invention, the light source may be configured to emit light of an appropriate wavelength for a peak region of a fluorescent excitation spectrum for the amyloid-binding compound bound to the amyloid protein in the eye, and the optical unit may be configured to detect light of an appropriate wavelength for a peak region of a fluorescent emission spectrum for the amyloid-binding compound bound to the amyloid protein in the eye. For example, where the amyloid-binding compound is Compound #11, the excitation spectrum has a peak of about 470 nm, and the light source may be configured to emit light within plus or minus about 20 nm of the peak of about 470 nm, such as within plus or minus 5 nm, plus or minus 10 nm, plus or minus 15 nm or plus or minus 20 nm of 470 nm. Further, the emission spectrum for Compound #11 has a peak of about 580 nm, and the optical unit may be configured to detect light within plus or minus about 20 nm of the peak of about 580 nm, such as within plus or minus 5 nm, plus or minus 10 nm, plus or minus 15 nm or plus or minus 20 nm of 580 nm. In general, there is typically a shift between the peak of the excitation spectrum and the peak of the emission spectrum of a fluorescent compound. […] For example, an emission spectrum having a peak greater than about 500 nm is advantageous for distinguishing from the natural autofluorescence of the eye. […] FIG. 12 is an emission spectrum of the fluorescent amyloid-binding compound Compound #11 when excited at 470 nm, in accordance with an embodiment of the invention. Other excitation and emission spectra that may be used will be apparent to those of skill in the art based on the foregoing.
A fluorescent histogram of the fluorescent amyloid-binding compound Compound #11 is shown in FIG. 6, obtained by a device in accordance with an embodiment of the invention. Single exponential fitting results in a lifetime decay rate of 2 nsec.

[5] = target: aggregated beta-amyloid (Aβ) peptide (Homo sapiens, UniProt P05067); conditions: cited from earlier work
aggregated beta-amyloid (Aβ) peptide, sequence (P05067 672-713 limits assumed): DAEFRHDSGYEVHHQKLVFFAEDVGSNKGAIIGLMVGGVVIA

T1 sequence (P05067 672-713): as the sequence (P05067 672-713 limits assumed) above

Structure (SMILES): COCCOCCOCCOC(=O)/C(C#N)=C/c1ccc2cc(N3CCCCC3)ccc2c1 [Compound #11, (E)-2-(2-(2-methoxyethoxy)ethoxy)ethyl-2-cyano-3-(6-(piperidin-1-yl)naphthalen-2-yl)acrylate]
- difference in fluorescence lifetime, bound vs unbound ([1]; Compound #11 vs Compound #11 bound to aggregated Aβ peptide): 0.85 nsec
- fluorescence lifetime decay (time decay rate) of compound bound to aggregated Aβ peptide ([1]; bound to aggregated Aβ(1-42) 5 μM, 4 μM Compound #11, 25° C.): 2.25 nsec
- fluorescence lifetime decay (time decay rate) of unbound compound [2]: 1.4 nsec
- fluorescence signal after repetitive topical administration ([3]; 5 mg/g in ointment form, three times a day for four days): Detectable fluorescence signal
- decay rate in lifetime image of the lens (xy-scan) ([3]; animal 1003, end of fourth day): 2 nsec
- change of fluorescence in the lens nucleus over four days ([3]; measured at beginning and end of each day, 4 days, rabbits 1002 and 1003): increase of Compound #11 fluorescence
- time of stay in the lens nucleus ([3]; repetitive topical administration): at least 12 hours
- accumulation in the lens nucleus ([3]; repetitive topical administration, after several hours of application): tended to accumulate in the nucleus
- penetration of the cornea and detection in the lens ([3]; topical ocular, rabbit eyes): penetrate the cornea and be detected by the device in the lens
- excitation spectrum peak [4]: about 470 nm
- emission spectrum peak ([4]; excited at 470 nm): about 580 nm
- lifetime decay rate ([4]; single exponential fitting of fluorescent histogram (FIG. 6)): 2 nsec
- binding to aggregated beta-amyloid (Aβ) peptide [5]: has been shown to bind
